Molecules are shown by their SMILES. Activity calls are given as the source filed them. Bounds are passed on as bounds.

Assay [1] has as its target Tyrosine-protein phosphatase non-receptor type 12 (Homo sapiens, UniProt Q05209). Description: SAR Selectivity Analysis of small molecule inhibitors of PEST using pCAP in a fluorescence assay. [Related pubchem assays (depositor defined):AID1779, AID1784, AID2135]. In kind it is functional.
For assay [2], the target named is T1, Dual specificity protein phosphatase 3 (Homo sapiens, UniProt P51452). Description: SAR VHR1 absorbance Assay for In Vitro dose response studies. [Related pubchem assays (depositor defined):AID1654, AID1661, AID1878, AID1992, AID2004].
Assay [3] concerns the target T1, Dual specificity protein phosphatase 3. Description: SAR VHR1 Fluorescent Assay for In Vitro dose response studies. [Related pubchem assays (depositor defined):AID1654, AID1661, AID1878, AID1992, AID2004, AID2070, AID2085]. In kind it is functional.
The target of assay [4] is T2, Tyrosine-protein phosphatase non-receptor type 22 (Homo sapiens, UniProt Q9Y2R2).
T2 sequence (Q9Y2R2 whole entry): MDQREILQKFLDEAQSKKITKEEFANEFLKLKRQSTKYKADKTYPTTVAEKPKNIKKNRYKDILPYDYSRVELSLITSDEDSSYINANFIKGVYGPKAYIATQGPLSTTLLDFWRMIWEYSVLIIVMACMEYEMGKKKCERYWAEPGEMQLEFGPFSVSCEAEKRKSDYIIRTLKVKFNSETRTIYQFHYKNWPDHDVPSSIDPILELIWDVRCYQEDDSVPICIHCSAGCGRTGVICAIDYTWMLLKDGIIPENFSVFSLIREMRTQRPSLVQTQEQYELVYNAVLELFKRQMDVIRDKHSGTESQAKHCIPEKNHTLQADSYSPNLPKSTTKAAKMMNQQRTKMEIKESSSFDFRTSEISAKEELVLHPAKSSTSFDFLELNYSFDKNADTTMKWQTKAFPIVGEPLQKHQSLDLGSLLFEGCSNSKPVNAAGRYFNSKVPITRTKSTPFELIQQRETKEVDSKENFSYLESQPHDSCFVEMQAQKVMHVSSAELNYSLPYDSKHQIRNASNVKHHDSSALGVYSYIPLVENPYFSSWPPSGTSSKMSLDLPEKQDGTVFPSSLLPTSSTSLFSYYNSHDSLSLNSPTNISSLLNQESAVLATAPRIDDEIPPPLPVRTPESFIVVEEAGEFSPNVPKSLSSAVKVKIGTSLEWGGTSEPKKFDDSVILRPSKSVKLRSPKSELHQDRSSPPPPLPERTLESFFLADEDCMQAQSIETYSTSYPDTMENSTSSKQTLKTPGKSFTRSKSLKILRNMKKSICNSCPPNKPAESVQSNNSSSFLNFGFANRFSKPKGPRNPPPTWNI
Description: SAR LYP1 Fluorescent Assay using OMFP substrate for In Vitro dose response studies - Set 3. [Related pubchem assays (depositor defined):AID1779, AID1784, AID2140, AID2686]. In kind it is functional.

For assay [5], the target named is T3, Tyrosine-protein phosphatase non-receptor type 7 (Homo sapiens, UniProt P35236).
T3 sequence (P35236 whole entry): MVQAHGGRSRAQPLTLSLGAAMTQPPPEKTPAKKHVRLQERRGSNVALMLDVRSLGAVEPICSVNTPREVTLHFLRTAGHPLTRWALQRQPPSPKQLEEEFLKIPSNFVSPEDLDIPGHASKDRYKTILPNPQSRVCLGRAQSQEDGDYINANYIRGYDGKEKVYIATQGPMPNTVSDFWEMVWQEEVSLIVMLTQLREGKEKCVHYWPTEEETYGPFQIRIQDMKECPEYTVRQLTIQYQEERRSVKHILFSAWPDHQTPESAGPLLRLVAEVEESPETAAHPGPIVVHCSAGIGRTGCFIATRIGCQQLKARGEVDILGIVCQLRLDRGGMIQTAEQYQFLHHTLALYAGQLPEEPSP
Description: redox-dependent HePTP inhibition, mechanism study, biochemical, fluorescence (AID 2068). In kind it is functional.

The target in assay [6] is T2, Tyrosine-protein phosphatase non-receptor type 22. Description: LYP (PTPN22) phosphatase inhibitor potency, SAR follow-up, biochemical, pCAP fluorogenic substrate, fluorescence, set 3 (AID 449727). In kind it is functional.
In assay [7] the target is T4, Dual specificity protein phosphatase 6 (Rattus norvegicus, UniProt Q64346).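 Note: confirmatory in vitro dose-response testing of MKP-3 inhibition; recombinant His-tagged MKP-3 made in E. coli BL21 with OMFP substrate.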
T4 sequence (Q64346 whole entry): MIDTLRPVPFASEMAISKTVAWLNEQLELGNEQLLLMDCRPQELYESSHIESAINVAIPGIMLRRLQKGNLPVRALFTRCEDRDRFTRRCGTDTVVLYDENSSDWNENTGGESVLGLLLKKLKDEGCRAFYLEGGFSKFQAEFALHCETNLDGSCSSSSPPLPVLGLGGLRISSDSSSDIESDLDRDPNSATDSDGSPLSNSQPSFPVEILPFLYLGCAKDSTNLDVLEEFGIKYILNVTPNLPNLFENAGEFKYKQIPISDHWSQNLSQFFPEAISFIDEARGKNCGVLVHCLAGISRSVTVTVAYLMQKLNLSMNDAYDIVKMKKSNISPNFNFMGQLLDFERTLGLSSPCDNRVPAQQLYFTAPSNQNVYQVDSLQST
In kind it is functional.

In assay [8] the target is Type-1 angiotensin II receptor (Homo sapiens, UniProt P30556). Description: AT1 receptor agonists, dose response, selectivity assay for APJ receptor agonist project, cell-based, uHTS hits (AID 488865).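 Note: beta-arrestin recruitment to AT1 measured by enzyme fragment complementation luminescence.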 In kind it is functional.
In a further assay the target is Ion channel NompC (Danio rerio, UniProt Q7T1G6). Description: Dose response cell-based high-throughput screening assay for agonists of the transient receptor potential channel N1 (TRPN1). [Related pubchem assays (depositor defined):AID1424, AID1448]. In kind it is functional.
A short description of assay [9]: growth suppression of PTEN-null colon cells, dose response, cell-based, HCT116 PTEN knockout (AID 1047).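 Note: HCT116 colon tumor cells with PTEN knocked out; cells exposed to compound for 60 hours before readout; potency for loss of cell viability measured by luminescence.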 The assay is classed as functional.
Another assay has as its target Mucolipin-3 (Homo sapiens, UniProt Q8TDD5). Description: Fluorescence counterscreen assay for […] agonists: dose response cell-based high-throughput screening assay to identify agonists of the transient receptor potential channel ML3 (TRPML3). [Related pubchem assays: 1424, 1448 ]. The assay is classed as functional. For orientation: A counterscreen serves to expose hits that act by an unwanted route or on another target.

Assay [10] can be described thus: growth suppression of beta-catenin-knockout colon cells, dose response, cell-based, HCT116, human colon tumor (AID 1045).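 Note: HCT116 colon tumor cells with beta catenin knocked out; cells exposed to compound for 60 hours.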 The assay is classed as functional.
The subject of the next assay is HEK293. Description: inhibitors of LMP1-driven NF-kB reporter, dose response, cell-based, HEK293, luciferase, cherry-pick (AID 588343). The assay is classed as functional. Particulars: Homo sapiens.
The target of assay [11] is T5, High affinity choline transporter 1 (Homo sapiens, UniProt Q9GZV3).
T5 sequence (Q9GZV3 whole entry): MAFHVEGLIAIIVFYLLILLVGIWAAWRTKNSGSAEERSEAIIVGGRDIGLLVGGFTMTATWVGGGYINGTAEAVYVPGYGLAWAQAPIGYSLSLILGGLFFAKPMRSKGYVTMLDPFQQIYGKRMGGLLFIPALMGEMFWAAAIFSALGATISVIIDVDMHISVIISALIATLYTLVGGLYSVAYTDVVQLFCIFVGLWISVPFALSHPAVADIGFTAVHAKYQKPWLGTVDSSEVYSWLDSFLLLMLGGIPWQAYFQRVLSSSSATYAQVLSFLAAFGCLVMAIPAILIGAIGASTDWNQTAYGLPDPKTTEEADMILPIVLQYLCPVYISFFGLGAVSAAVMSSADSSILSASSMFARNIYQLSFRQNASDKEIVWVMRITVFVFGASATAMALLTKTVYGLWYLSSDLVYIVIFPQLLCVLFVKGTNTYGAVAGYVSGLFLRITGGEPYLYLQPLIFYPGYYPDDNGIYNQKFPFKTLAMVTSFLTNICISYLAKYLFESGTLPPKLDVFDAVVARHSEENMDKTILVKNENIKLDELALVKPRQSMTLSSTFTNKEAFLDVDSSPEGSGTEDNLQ
Description: CHT inhibitors, dose response, cell-based, 5-point CRC, membrane potential dye (AID 504840). In kind it is functional.

The nature of assay [12]: A small molecule screen for inhibitors of the PhoP region in Salmonella typhi (4) using purified and synthesized compounds. [Related pubchem assays (depositor defined):AID1850, AID1864, AID1985, AID2252, AID2384, AID2612, AID2811, AID434995]. The assay is classed as functional.
Assay [13] has as its target T6, Runt-related transcription factor 1/Core-binding factor subunit beta (Homo sapiens, UniProt Q01196+Q13951). Description: inhibitors of RUNX1 Runt–CBFb-SMMHC binding, primary screen, biochemical, FRET, Cerulean-Runt, Venus-CBFb-SMMHC, uHTS (AID 1434).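 Note: partner is the CBFb-SMMHC leukemia fusion protein rather than wild-type CBFb.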 The assay is classed as protein assay.
For assay [14], the target named is T7, Voltage-gated N-type calcium channel alpha-1B subunit/Amyloid beta A4 precursor protein-binding family A member 1 (Homo sapiens, UniProt Q00975+Q02410). The assay is classed as protein assay.
Assay [15] addresses T6, Runt-related transcription factor 1/Core-binding factor subunit beta. Description: inhibitors of RUNX1 Runt–CBFb-SMMHC binding, biochemical, TR-FRET (AID 1438). In kind it is protein assay.
Assay [16] has as its target T7, Voltage-gated N-type calcium channel alpha-1B subunit/Amyloid beta A4 precursor protein-binding family A member 1. In kind it is protein assay. This is another data set of the same source.
For assay [17], the target named is T8, Mannose-6-phosphate isomerase (Homo sapiens, UniProt P34949).
T8 sequence (P34949 whole entry): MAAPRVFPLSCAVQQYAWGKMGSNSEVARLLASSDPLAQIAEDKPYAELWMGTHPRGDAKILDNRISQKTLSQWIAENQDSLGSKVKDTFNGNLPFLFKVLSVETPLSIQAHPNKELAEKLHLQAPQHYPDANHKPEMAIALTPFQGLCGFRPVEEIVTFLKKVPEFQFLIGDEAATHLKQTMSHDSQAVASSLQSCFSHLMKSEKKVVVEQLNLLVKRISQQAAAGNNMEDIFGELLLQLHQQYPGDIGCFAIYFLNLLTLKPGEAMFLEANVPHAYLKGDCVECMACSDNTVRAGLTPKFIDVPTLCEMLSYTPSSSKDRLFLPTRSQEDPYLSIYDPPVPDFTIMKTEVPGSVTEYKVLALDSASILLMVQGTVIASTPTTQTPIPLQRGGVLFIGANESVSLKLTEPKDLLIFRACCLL
Description: human PMI inhibitors, high substrate, primary screen, biochemical, fluorescence intensity, high mannose 6-phosphate (AID 1220).

Assay [18] has as its target T8, Mannose-6-phosphate isomerase. Description: PMI enzyme inhibitors, confirmation, biochemical, fluorescence intensity (AID 1535).
In assay [19] the target is DNA dC->dU-editing enzyme APOBEC-3A (Homo sapiens, UniProt P31941). Description: APOBEC3A DNA deaminase inhibitors, dose response, biochemical (AID 504722). The assay is classed as functional.
In assay [20] the target is Glucose-6-phosphate 1-dehydrogenase (Homo sapiens, UniProt P11413). Description: human G6PD enzyme inhibitors, dose response, selectivity assay for P. falciparum G6PD inhibitor project, biochemical, fluorescence (AID 504792). The assay is classed as functional.
Another assay has as its target T9, Phosphomannomutase 2 (Homo sapiens, UniProt O15305).
T9 sequence (O15305 whole entry): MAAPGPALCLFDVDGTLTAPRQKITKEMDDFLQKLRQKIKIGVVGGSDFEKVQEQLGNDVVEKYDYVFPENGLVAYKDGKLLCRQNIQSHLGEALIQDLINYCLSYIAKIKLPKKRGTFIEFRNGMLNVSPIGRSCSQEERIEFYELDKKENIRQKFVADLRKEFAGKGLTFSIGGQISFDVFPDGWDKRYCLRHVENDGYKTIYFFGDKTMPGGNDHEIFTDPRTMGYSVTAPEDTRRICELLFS
Description: Counter screen SAR assay for PMM2 inhibitors via a fluorescence intensity assay. [Related pubchem assays (depositor defined):AID1545, AID1574].

Assay [21] addresses DNA dC->dU-editing enzyme APOBEC-3G (Homo sapiens, UniProt Q9HC16). Description: Dose Response confirmation of small molecule APOBEC3G DNA Deaminase Inhibitors via a fluorescence-based single-stranded DNA deaminase assay. [Related pubchem assays (depositor defined):AID493012, AID493028]. The assay is classed as functional.
Assay [22] addresses DNA damage-inducible transcript 3 protein (Mus musculus, UniProt P35639). In kind it is functional, Cricetulus griseus.

T1 sequence (P51452 whole entry): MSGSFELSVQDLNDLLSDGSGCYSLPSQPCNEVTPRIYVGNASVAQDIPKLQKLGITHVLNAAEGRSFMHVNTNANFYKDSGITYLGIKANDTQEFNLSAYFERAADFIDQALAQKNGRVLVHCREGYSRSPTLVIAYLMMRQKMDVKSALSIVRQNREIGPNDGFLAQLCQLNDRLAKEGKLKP
T6 sequence (Q01196 whole entry, the tested form may be a part): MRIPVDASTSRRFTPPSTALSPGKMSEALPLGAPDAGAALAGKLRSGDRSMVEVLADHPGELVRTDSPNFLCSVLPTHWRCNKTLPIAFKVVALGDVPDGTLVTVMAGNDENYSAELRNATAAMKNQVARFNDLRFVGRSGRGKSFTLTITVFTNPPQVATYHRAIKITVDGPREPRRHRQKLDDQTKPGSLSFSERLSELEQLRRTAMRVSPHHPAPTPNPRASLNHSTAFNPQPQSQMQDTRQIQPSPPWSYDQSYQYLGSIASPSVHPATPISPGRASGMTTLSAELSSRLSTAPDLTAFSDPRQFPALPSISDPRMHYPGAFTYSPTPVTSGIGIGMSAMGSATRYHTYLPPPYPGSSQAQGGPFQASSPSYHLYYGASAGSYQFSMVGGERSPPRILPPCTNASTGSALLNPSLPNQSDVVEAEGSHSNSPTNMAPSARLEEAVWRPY
T6 sequence (Q13951 whole entry, the tested form may be a part): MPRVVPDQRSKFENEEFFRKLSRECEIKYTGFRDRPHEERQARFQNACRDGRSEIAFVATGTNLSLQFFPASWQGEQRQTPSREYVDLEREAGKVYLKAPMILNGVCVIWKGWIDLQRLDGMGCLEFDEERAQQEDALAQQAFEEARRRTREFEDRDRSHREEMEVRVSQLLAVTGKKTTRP
T7 sequence (Q00975 whole entry): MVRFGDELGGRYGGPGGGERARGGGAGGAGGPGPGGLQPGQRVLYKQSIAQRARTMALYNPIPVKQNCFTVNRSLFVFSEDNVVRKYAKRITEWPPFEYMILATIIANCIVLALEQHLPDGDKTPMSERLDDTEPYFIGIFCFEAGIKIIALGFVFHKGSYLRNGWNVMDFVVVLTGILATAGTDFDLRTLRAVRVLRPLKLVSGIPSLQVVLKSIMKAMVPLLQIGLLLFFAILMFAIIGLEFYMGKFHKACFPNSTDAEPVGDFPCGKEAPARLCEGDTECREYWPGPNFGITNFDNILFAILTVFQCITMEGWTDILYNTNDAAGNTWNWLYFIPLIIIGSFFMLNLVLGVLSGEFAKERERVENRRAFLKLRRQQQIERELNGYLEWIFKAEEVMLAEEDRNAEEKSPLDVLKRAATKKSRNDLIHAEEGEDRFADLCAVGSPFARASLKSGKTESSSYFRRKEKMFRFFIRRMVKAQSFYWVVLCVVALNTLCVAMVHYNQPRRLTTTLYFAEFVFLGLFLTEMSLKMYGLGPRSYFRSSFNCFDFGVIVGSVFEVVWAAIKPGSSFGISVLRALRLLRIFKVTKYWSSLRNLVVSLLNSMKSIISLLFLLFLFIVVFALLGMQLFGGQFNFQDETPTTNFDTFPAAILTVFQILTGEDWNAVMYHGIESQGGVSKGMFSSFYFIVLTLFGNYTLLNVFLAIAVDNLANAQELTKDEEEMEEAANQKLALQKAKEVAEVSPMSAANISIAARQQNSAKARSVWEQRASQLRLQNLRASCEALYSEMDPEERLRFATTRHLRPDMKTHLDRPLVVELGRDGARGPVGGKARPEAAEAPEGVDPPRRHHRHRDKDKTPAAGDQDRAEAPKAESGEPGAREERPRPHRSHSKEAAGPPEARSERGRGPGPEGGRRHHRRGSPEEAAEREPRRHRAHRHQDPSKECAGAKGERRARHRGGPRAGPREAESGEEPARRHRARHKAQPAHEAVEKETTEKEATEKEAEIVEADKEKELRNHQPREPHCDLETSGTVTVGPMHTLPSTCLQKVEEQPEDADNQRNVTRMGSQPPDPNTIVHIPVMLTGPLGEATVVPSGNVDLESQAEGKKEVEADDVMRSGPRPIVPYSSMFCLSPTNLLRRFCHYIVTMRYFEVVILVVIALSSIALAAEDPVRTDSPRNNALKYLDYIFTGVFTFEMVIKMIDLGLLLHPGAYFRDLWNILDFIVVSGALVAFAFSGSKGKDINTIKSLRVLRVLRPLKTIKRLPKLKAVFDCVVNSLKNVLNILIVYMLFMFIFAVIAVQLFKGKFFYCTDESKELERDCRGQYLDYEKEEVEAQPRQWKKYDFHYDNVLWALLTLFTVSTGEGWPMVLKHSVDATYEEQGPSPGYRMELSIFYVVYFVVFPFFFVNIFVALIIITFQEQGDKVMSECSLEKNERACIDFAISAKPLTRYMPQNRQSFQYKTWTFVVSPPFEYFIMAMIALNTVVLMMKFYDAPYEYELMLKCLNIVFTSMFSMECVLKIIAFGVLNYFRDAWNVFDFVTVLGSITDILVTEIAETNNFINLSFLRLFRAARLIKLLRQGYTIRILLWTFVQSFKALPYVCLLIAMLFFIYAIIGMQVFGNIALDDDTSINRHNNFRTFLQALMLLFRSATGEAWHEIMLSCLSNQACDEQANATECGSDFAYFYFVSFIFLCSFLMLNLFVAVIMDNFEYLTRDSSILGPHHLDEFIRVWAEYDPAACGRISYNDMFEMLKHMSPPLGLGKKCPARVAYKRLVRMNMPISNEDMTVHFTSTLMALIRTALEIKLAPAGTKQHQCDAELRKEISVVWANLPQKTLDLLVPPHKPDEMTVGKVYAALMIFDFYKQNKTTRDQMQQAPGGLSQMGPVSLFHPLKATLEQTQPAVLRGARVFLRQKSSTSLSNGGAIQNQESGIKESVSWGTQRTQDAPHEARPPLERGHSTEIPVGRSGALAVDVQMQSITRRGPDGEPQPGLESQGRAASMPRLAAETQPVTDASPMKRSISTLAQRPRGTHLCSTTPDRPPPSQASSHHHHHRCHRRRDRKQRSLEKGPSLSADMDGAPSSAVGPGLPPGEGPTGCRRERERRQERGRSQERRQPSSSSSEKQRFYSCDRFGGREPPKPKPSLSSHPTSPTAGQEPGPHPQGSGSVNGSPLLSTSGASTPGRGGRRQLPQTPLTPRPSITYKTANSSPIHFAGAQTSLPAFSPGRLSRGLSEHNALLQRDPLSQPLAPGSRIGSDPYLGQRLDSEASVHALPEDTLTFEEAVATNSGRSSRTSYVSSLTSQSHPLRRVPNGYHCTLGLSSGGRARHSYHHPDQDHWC
T7 sequence (Q02410 whole entry): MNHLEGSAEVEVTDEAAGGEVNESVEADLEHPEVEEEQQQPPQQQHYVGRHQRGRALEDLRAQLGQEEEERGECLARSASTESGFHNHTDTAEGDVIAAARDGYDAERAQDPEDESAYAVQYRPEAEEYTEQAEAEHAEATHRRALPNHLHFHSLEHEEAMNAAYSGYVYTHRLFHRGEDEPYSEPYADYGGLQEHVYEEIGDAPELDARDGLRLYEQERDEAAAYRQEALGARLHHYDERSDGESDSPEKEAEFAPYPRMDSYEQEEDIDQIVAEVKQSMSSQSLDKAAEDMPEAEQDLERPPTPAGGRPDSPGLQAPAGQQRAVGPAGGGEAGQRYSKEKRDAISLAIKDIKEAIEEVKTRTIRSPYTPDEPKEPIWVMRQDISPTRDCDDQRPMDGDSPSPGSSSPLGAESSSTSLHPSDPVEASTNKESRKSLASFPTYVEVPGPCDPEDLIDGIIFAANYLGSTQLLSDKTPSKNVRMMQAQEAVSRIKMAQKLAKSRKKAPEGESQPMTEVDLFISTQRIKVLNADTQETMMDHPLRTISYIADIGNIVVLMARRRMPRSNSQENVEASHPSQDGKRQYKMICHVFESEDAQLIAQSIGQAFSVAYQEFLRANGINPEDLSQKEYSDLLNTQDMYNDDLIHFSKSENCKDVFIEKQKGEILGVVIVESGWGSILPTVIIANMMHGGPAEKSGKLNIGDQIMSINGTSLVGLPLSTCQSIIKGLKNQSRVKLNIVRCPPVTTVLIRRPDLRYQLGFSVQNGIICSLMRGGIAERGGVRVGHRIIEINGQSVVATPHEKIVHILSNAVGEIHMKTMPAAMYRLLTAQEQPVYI
Glucose-6-phosphate 1-dehydrogenase, sequence (P11413 whole entry): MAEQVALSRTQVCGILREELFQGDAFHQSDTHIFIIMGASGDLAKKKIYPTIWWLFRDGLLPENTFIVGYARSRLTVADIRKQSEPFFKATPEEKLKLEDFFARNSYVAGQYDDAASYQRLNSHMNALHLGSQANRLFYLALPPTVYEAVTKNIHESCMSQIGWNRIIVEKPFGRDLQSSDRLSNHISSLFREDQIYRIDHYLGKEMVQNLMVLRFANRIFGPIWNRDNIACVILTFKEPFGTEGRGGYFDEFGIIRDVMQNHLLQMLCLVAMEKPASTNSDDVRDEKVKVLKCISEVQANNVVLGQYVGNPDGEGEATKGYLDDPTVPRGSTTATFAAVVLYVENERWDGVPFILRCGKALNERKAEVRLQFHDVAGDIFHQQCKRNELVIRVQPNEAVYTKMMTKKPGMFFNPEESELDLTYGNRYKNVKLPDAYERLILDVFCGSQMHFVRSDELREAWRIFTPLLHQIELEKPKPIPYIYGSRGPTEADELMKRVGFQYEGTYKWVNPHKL
Mucolipin-3, sequence (Q8TDD5 whole entry): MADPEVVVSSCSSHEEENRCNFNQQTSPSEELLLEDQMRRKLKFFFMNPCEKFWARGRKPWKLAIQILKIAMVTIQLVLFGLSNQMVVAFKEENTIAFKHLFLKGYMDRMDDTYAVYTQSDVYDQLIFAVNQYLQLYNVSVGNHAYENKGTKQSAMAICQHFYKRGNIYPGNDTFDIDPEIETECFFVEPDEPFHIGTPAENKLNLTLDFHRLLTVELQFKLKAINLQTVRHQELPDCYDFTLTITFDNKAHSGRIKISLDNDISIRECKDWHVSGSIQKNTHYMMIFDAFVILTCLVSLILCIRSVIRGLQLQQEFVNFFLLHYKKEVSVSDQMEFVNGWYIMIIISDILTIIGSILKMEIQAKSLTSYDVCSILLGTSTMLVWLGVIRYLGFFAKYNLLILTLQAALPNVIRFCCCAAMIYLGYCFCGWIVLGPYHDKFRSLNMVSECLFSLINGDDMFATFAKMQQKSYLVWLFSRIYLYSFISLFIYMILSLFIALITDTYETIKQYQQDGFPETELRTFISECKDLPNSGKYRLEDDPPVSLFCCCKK

As to `O=C(COc1c(Cl)cccc1Cl)Oc1ccc([N+](=O)[O-])cc1`, the concentration for half-maximal inhibition (IC50) is 42.5 µM (active) in [1]; > 100 µM (inactive) in assay [2]; > 99 µM (inactive) in assay [3]; > 100 µM (inactive) in assay [4]; 15.1 µM (active) in assay [5]; 63.7 µM (active) in [6]. Moreover, the IC50 in [7] is > 99 µM (inactive).

On to `CCOC(=O)C1=C(Cn2cnc3ccccc32)NC(=O)NC1c1cc(C)ccc1C` (stereo unspecified), for which, in assay [8], the EC50 was > 100 µM (inactive).

In the case of `CCCCN=C(S)Nc1ccc([N+](=O)[O-])cc1`, the EC50 on Ion channel NompC was > 29.9 µM (inactive); in assay [9], 19.6 µM (active); on Mucolipin-3 it was > 29.9 µM (not active); in assay [10], 20.7 µM (active). Also, the AC50 in the assay on HEK293 was 105 µM (active). Further, in [11], the IC50 is 12 µM (active).

In the case of `COc1cccc(CNC(=S)Nc2ccncc2)c1`, the IC50 in [12] was 164 µM (active).

Turning to `CCOC(=O)Cc1csc(-n2sc3ccccc3c2=O)n1`, the IC50 in assay [13] is 5.4 µM (active); in assay [14], 1.15 µM (active); in assay [15], 8.58 µM (active); in assay [16], > 50 µM (inactive); in assay [17], 23.5 µM (active); in assay [18], > 50 µM (inactive). Further, the IC50 was > 100 µM (inactive) in [19], 21.6 µM (inactive) in [20], > 100 µM (inactive) on Phosphomannomutase 2 and 12.6 µM (active) in assay [21].

For `Cc1nc(SCC(=O)Nc2ccc(C)c(F)c2)c2oc3ccccc3c2n1`, the “Absolute IC50 (CHOP)” value in assay [22] is 10 µM.

As usually defined, the IC50 is the midpoint of a concentration-inhibition curve. What is called EC50 is the concentration that produces a half-maximal response. In general, AC50 refers to the midpoint of the concentration-response curve, whichever way the signal moves.

The values are drawn from ChEMBL document CHEMBL1201862, “PubChem BioAssay data set” (2004).
